Laboratory results reported in patent US20260199323A1, “LIGAND COMPOUNDS FOR E3 UBIQUITIN LIGASE, PROTEIN DEGRADERS DEVELOPED ON BASIS OF LIGAND COMPOUNDS, AND USES THEREOF” (GLUETACS THERAPEUTICS (SHANGHAI) CO., LTD., priority 2021, published 2026).
Read-outs that look alike come from different tables or passages of the source.

Experiments:
Format in all cases: cell-based, Human
T47D = experiment: CCK-8 tumor cell proliferation, T47D; conditions: Table 8, designed based on ER inhibitors; 96 h
Protocol: (§1) The tumor cells used herein were cultured in a cell culture medium listed in table 4 at 37° C. in an incubator with 5% CO2. Prior to experimentation, all cells used were correctly identified by STR profiling, and tested negative for mycoplasma through routine screenings.
(§2) IC50 values of the compounds of the present disclosure (including the compounds in Tables 1 and 3, and compounds of examples) were measured using the Meilun Cell Counting Kit-8 kit from Dalian Meilun Biotech Co., Ltd. Assay details are as follows: tumor cells were seeded in a 96-well plate at a density listed in Table 5. After 24 h, 100 μL of the inoculated cells were treated with 0.5 μL of the compounds of the present disclosure (including the compounds in Tables 1 and 3, and compounds of examples) at 10 different successively decreasing concentrations (starting at the highest concentration of 10 μM; 5-fold serial dilutions). After the cells were treated with the compounds of the present disclosure for a period of time, the cell viability detection reagent was added to the culture medium for cell viability assessment according to the instructions provided with the CCK-8 kit. […] The growth inhibition of the compounds of the present disclosure on cells was plotted by Prism Graphpad software, and the IC50 values of the compounds of the present disclosure were calculated therefrom.

CCRF-CEM = experiment: CCK-8 tumor cell proliferation, CCRF-CEM; conditions: Homo sapiens, CCRF-CEM, read-out: IC50 inhibiting proliferation of tumor cells, CCRF-CEM
How it was run: (§3)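 IC50 derived from CCK-8 cell viability after compound treatment. Dilution series: 10 concentrations, 5-fold apart, from 10 μM. Compound added 24 h post-seeding; culture at 37 °C in 5% CO2.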

HGC-27 = experiment: CCK-8 tumor cell proliferation, HGC-27; conditions: Homo sapiens; Table 18, FAK inhibitor based; HGC-27; read-out: IC50 inhibiting proliferation of tumor cells, HGC-27
Protocol: as §1, §2

MDA-MB-231 = experiment: CCK-8 tumor cell proliferation, MDA-MB-231; conditions: Homo sapiens; Table 18, FAK inhibitor based; MDA-MB-231; read-out: IC50 inhibiting proliferation of tumor cells, MDA-MB-231
How it was run: as §3

SR = experiment: CCK-8 tumor cell proliferation, SR; conditions: Homo sapiens; Table 18, FAK inhibitor based; SR; read-out: IC50 inhibiting proliferation of tumor cells, SR
How it was run: as §3

Mino = experiment: CCK-8 tumor cell proliferation, Mino; conditions: Homo sapiens; Table 18, FAK inhibitor based; Mino; read-out: IC50 inhibiting proliferation of tumor cells, Mino
How it was run: as §3

SW620 = experiment: CCK-8 tumor cell proliferation, SW620; conditions: Homo sapiens, SW-620, SW620, read-out: IC50 inhibiting proliferation of tumor cells, SW620
How it was run: as §3

PC-9 = experiment: CCK-8 tumor cell proliferation, PC-9; conditions: Homo sapiens; Table 18, FAK inhibitor based; PC-9; read-out: IC50 inhibiting proliferation of tumor cells, PC-9
SU-DHL-4 = experiment: CCK-8 tumor cell proliferation, SU-DHL-4; conditions: Homo sapiens, Table 19, IRAK4 inhibitor based, read-out: IC50 inhibiting proliferation of tumor cells, SU-DHL-4
Protocol: as §1, §2

LNcap = experiment: CCK-8 tumor cell proliferation, LNcap; conditions: Homo sapiens; Table 19, IRAK4 inhibitor based; Lncap; read-out: IC50 inhibiting proliferation of tumor cells, Lncap
How it was run: as §3

Jurkat = experiment: CCK-8 tumor cell proliferation, Jurkat; conditions: Homo sapiens, Table 19, IRAK4 inhibitor based, read-out: IC50 inhibiting proliferation of tumor cells, Jurkat
How it was run: as §3

CAL-62 = experiment: CCK-8 tumor cell proliferation, CAL-62; conditions: Homo sapiens; Table 19, IRAK4 inhibitor based; CAL-62; read-out: IC50 inhibiting proliferation of tumor cells, CAL-62
How it was run: as §3

[1] = Table 19, IRAK4 inhibitor based

In the case of `CN(CCOc1ccc(/C(=C(/CCCl)c2ccccc2)c2ccccc2)cc1)Cc1ccc2c(c1)CN(C1CCC(=O)NC1=O)C2=O` (stereo not shown) [GT-02970, (Z)-3-(5-(((2-(4-(4-chloro-1,2-diphenylbut-1-en-1-yl)phenoxy)ethyl)(methyl)amino)methyl)-1-oxoisoindolin-2-yl)piperidine-2,6-dione], the “IC50 for inhibiting the proliferation of tumor cells, T47D” value (T47D) is reported as “A+”.

For `CNC(=O)c1ccccc1Nc1cc(Nc2ccc(N3CCN(Cc4ccc5c(c4)CN(C4CCC(=O)NC4=O)C5=O)CC3)cc2OC)ncc1C(F)(F)F` (stereo not shown) [GT-03014, 2-((2-((4-(4-((2-(2,6-dioxopiperidin-3-yl)-1-oxoisoindolin-5-yl)methyl)piperazin-1-yl)-2-methoxyphenyl)amino)-5-(trifluoromethyl)pyridin-4-yl)amino)-N-methylbenzamide], the IC50 (CCRF-CEM; Table 18, FAK inhibitor based) was less than 50 nM, the IC50 (HGC-27) was 1000 to 5000 nM and the IC50 (MDA-MB-231) was 50 to 100 nM. For the same compound, the IC50 (SR) was 100 to 500 nM, the IC50 (Mino) was less than 50 nM and the IC50 (SW620; Table 18, FAK inhibitor based) was less than 50 nM. The IC50 (PC-9) was 1000 to 5000 nM.

In the case of `CNC(=O)c1ccccc1Nc1cc(Nc2ccc(N3CCC(NCc4ccc5c(c4)CN(C4CCC(=O)NC4=O)C5=O)CC3)cc2OC)ncc1C(F)(F)F` (stereo not shown) [GT-03213, 2-((2-((4-(4-(((2-(2,6-dioxopiperidin-3-yl)-1-oxoisoindolin-5-yl)methyl)amino)piperidin-1-yl)-2-methoxyphenyl)amino)-5-(trifluoromethyl)pyridin-4-yl)amino)-N-methylbenzamide], the IC50 (CCRF-CEM; Table 18, FAK inhibitor based) is reported as 100 to 500 nM, the IC50 (HGC-27) is reported as 500 to 1000 nM and the IC50 (MDA-MB-231) is reported as less than 50 nM. For the same compound, the IC50 (SR) was less than 50 nM, the IC50 (SW620; Table 18, FAK inhibitor based) was 500 to 1000 nM and the IC50 (PC-9) was 500 to 1000 nM.

With `CNC(=O)c1ccccc1Nc1cc(Nc2ccc(N3CCC(N4CCN(Cc5ccc6c(c5)CN(C5CCC(=O)NC5=O)C6=O)CC4)CC3)cc2OC)ncc1C(F)(F)F` (stereo not shown) [GT-03266, 2-((2-((4-(4-(4-((2-(2,6-dioxopiperidin-3-yl)-1-oxoisoindolin-5-yl)methyl)piperazin-1-yl)piperidin-1-yl)-2-methoxyphenyl)amino)-5-(trifluoromethyl)pyridin-4-yl)amino)-N-methylbenzamide] the IC50 (CCRF-CEM; Table 18, FAK inhibitor based) was 100 to 500 nM, the IC50 (HGC-27) was 500 to 1000 nM and the IC50 (MDA-MB-231) was 100 to 500 nM. The IC50 (SR) was 50 to 100 nM, the IC50 (Mino) was 1000 to 5000 nM and the IC50 (SW620; Table 18, FAK inhibitor based) was 100 to 500 nM. For the same compound, the IC50 (PC-9) was 100 to 500 nM.

Work on `CNC(=O)c1ccccc1Nc1cc(Nc2ccc(N3CCC(N4CCN(Cc5ccc6c(c5F)CN(C5CCC(=O)NC5=O)C6=O)CC4)CC3)cc2OC)ncc1C(F)(F)F` (stereo not shown) [GT-03595, 2-((2-((4-(4-(4-((2-(2,6-dioxopiperidin-3-yl)-4-fluoro-1-oxoisoindolin-5-yl)methyl)piperazin-1-yl)piperidin-1-yl)-2-methoxyphenyl)amino)-5-(trifluoromethyl)pyridin-4-yl)amino)-N-methylbenzamide] yielded an IC50 (CCRF-CEM; Table 18, FAK inhibitor based) of 100 to 500 nM, an IC50 (HGC-27) of 100 to 500 nM and an IC50 (MDA-MB-231) of 100 to 500 nM. The IC50 (SR) was less than 50 nM and the IC50 (PC-9) was 500 to 1000 nM.

Work on `CNC(=O)c1ccccc1Nc1cc(Nc2ccc(N3CCC(N4CCN(Cc5cc6c(cc5F)C(=O)N(C5CCC(=O)NC5=O)C6)CC4)CC3)cc2OC)ncc1C(F)(F)F` (stereo not shown) [GT-03596, 2-((2-((4-(4-(4-((2-(2,6-dioxopiperidin-3-yl)-6-fluoro-1-oxoisoindolin-5-yl)methyl)piperazin-1-yl)piperidin-1-yl)-2-methoxyphenyl)amino)-5-(trifluoromethyl)pyridin-4-yl)amino)-N-methylbenzamide] yielded an IC50 (CCRF-CEM; Table 18, FAK inhibitor based) of 100 to 500 nM, an IC50 (HGC-27) of 500 to 1000 nM and an IC50 (MDA-MB-231) of 500 to 1000 nM. It also gave an IC50 (SR) of 50 to 100 nM and an IC50 (PC-9) of 1000 to 5000 nM.

Compound `CNC(=O)c1ccccc1Nc1cc(Nc2ccc(N3CCC(N4CCN(Cc5cc(F)c6c(c5)CN(C5CCC(=O)NC5=O)C6=O)CC4)CC3)cc2OC)ncc1C(F)(F)F` (stereo not shown) [GT-03597, 2-((2-((4-(4-(4-((2-(2,6-dioxopiperidin-3-yl)-7-fluoro-1-oxoisoindolin-5-yl)methyl)piperazin-1-yl)piperidin-1-yl)-2-methoxyphenyl)amino)-5-(trifluoromethyl)pyridin-4-yl)amino)-N-methylbenzamide] has an IC50 (CCRF-CEM; Table 18, FAK inhibitor based) of 100 to 500 nM, an IC50 (HGC-27) of 500 to 1000 nM and an IC50 (MDA-MB-231) of 500 to 1000 nM. For the same compound, the IC50 (SR) was 50 to 100 nM and the IC50 (PC-9) was 500 to 1000 nM.

Compound `O=C1CCC(N2Cc3c(ccc(CN4CCC(n5cc(NC(=O)c6coc(-c7ccnc(NCC8CC8)c7)n6)c(C(F)F)n5)CC4)c3F)C2=O)C(=O)N1` (stereo not shown) [GT-04154, 2-(2-((cyclopropylmethyl)amino)pyridin-4-yl)-N-(3-(difluoromethyl)-1-(1-((2-(2,6-dioxopiperidin-3-yl)-4-fluoro-1-oxoisoindolin-5-yl)methyl)piperidin-4-yl)-1H-pyrazol-4-yl)oxazole-4-carboxamide] has an IC50 (SU-DHL-4) of less than 50 nM, an IC50 (CCRF-CEM; [1]) of less than 50 nM and an IC50 (SW620; [1]) of less than 50 nM. It also gave an IC50 (LNcap) of less than 50 nM, an IC50 (Jurkat) of less than 50 nM and an IC50 (CAL-62) of less than 50 nM.

`O=C1CCC(N2Cc3cc(CN4CCC(n5cc(NC(=O)c6coc(-c7ccnc(NCC8CC8)c7)n6)c(C(F)F)n5)CC4)c(F)cc3C2=O)C(=O)N1` (stereo not shown) [GT-04171, 2-(2-((cyclopropylmethyl)amino)pyridin-4-yl)-N-(3-(difluoromethyl)-1-(1-((2-(2,6-dioxopiperidin-3-yl)-6-fluoro-1-oxoisoindolin-5-yl)methyl)piperidin-4-yl)-1H-pyrazol-4-yl)oxazole-4-carboxamide] gave an IC50 (SU-DHL-4) of less than 50 nM, an IC50 (CCRF-CEM; [1]) of less than 50 nM and an IC50 (SW620; [1]) of less than 50 nM. It also gave an IC50 (LNcap) of less than 50 nM, an IC50 (Jurkat) of less than 50 nM and an IC50 (CAL-62) of less than 50 nM.

Compound `O=C1CCC(N2Cc3cc(CN4CCC(n5cc(NC(=O)c6coc(-c7ccnc(NCC8CC8)c7)n6)c(C(F)F)n5)CC4)cc(F)c3C2=O)C(=O)N1` (stereo not shown) [GT-04172, 2-(2-((cyclopropylmethyl)amino)pyridin-4-yl)-N-(3-(difluoromethyl)-1-(1-((2-(2,6-dioxopiperidin-3-yl)-7-fluoro-1-oxoisoindolin-5-yl)methyl)piperidin-4-yl)-1H-pyrazol-4-yl)oxazole-4-carboxamide] has an IC50 (SU-DHL-4) of 100 to 500 nM, an IC50 (CCRF-CEM; [1]) of less than 50 nM and an IC50 (SW620; [1]) of less than 50 nM. It also gave an IC50 (LNcap) of less than 50 nM, an IC50 (Jurkat) of less than 50 nM and an IC50 (CAL-62) of less than 50 nM.

Work on `CNC(=O)c1ccccc1Nc1cc(Nc2ccc(N3CCOCC3)cc2OC)ncc1C(F)(F)F` [PND-1186, reference compound] yielded an IC50 (CCRF-CEM; Table 18, FAK inhibitor based) of 500 to 1000 nM, an IC50 (HGC-27) of 1000 to 5000 nM and an IC50 (MDA-MB-231) of 1000 to 5000 nM. For the same compound, the IC50 (SR) was 100 to 500 nM, the IC50 (Mino) was 500 to 1000 nM and the IC50 (SW620; Table 18, FAK inhibitor based) was less than 50 nM. It also gave an IC50 (PC-9) of 500 to 1000 nM.
